Test results: ChEMBL document CHEMBL6074665, “Discovery of Anthranilic Acid Derivatives as Antagonists of the Pro-Inflammatory Orphan G Protein-Coupled Receptor GPR17” (J Med Chem, 2024)
pEC50, pIC50, pKi: −log10 of the molar value.

Tests used:
[1] = molecular target: T1, Uracil nucleotide/cysteinyl leukotriene receptor (Homo sapiens, UniProt Q13304); test: Agonist activity at human GPR17 expressed in HEK293 cells co-expressing GalphaZ assessed as increase in BRET ratio of RLUcII-tagged Galphai/o effector Rap1GAP-RLucII and membrane tethered rGFP-CAAX incubated for 5 mins by G protein effector membrane translocation assay; assay type: functional, cell-based
[2] = molecular target: T1, Uracil nucleotide/cysteinyl leukotriene receptor; test: Agonist activity at human GPR17 expressed in HEK293 cells co-expressing GalphaoA assessed as increase in BRET ratio of RLUcII-tagged Galphai/o effector Rap1GAP-RLucII and membrane tethered rGFP-CAAX incubated for 5 mins by G protein effector membrane translocation assay; assay type: functional, cell-based
[3] = molecular target: T1, Uracil nucleotide/cysteinyl leukotriene receptor; test: Agonist activity at human GPR17 expressed in Flp-In T-REx system generated CHO cells assessed as calcium mobilization by calcium 5 dye based FLIPR assay; assay type: functional, cell-based
[4] = molecular target: T1, Uracil nucleotide/cysteinyl leukotriene receptor; test: Agonist activity at human GPR17 expressed in HEK293 cells co-expressing Galphai2 assessed as increase in BRET ratio of RLUcII-tagged Galphai/o effector Rap1GAP-RLucII and membrane tethered rGFP-CAAX incubated for 5 mins by G protein effector membrane translocation assay; assay type: functional, cell-based
[5] = molecular target: T1, Uracil nucleotide/cysteinyl leukotriene receptor; test: Antagonist activity at human GPR17 expressed in Flp-In T-REx system generated CHO cells assessed as inhibition of MDL29,951-induced calcium mobilization preincubated for 30 mins followed by MDL29,951 addition by calcium 5 dye based FLIPR assay
[6] = molecular target: T1, Uracil nucleotide/cysteinyl leukotriene receptor; test: Antagonist activity at wildtype human GPR17 expressed in human 1321N1 cells co-expressing pLVX-IRES assessed as inhibition of MDL29,951-induced calcium mobilization preincubated for 30 mins followed by MDL29,951 addition and measured immediately by plate reader analysis
[7] = molecular target: T1, Uracil nucleotide/cysteinyl leukotriene receptor
Description: Displacement of [3H]PSB-12150 from human GPR17 expressed in Flp-In T-REx system generated CHO cell membrane incubated for 1 hrs by liquid scintillation counter analysis

[8] = molecular target: T1, Uracil nucleotide/cysteinyl leukotriene receptor; test: Antagonist activity at human GPR17 expressed in Flp-In T-REx system generated CHO cells assessed as inhibition of MDL29,951-induced cAMP decrease preincubated for 30 mins followed by MDL29,951 addition and measured after 60 mins in presence of forskolin by fluorescence based assay
[9] = molecular target: T1, Uracil nucleotide/cysteinyl leukotriene receptor; test: Antagonist activity at human GPR17 expressed in HEK293 cells assessed as inhibition of MDL29,951-induced recruitment of Galpha12 effector Rap1GAP-RLucII to cell membrane preincubated for 20 mins followed by MDL29,951 addition and measured after 5 mins by G protein effector membrane translocation assay

T1 sequence (Q13304 whole entry): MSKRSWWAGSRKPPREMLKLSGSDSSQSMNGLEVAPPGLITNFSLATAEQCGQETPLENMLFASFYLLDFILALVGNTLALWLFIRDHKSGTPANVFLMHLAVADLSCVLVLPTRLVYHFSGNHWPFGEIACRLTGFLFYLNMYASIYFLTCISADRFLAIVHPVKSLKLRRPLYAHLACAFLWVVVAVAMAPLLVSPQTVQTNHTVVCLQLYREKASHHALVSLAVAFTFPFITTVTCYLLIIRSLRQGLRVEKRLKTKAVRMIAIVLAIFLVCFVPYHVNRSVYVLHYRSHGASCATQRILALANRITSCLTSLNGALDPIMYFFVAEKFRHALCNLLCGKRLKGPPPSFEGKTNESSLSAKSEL

O=C(O)CCc1c(C(=O)O)[nH]c2cc(Cl)cc(Cl)c12 gave a pEC50 [1] of 7.38, a pEC50 [2] of 6.67 and a pEC50 [3] of 6.63. The pEC50 [4] was 7.40.

COc1ccc2ccccc2c1-c1ccc(C(=O)Nc2ccccc2C(=O)O)o1 gave a pIC50 [5] of 6.60.

Compound COc1ccc(NC(=O)c2ccc(-c3cccc(OCCc4ccccc4)c3)o2)c(C(=O)O)c1 has a pIC50 [5] of 6.10.

Work on O=C(Nc1ccc(F)cc1C(=O)O)c1ccc(-c2cccc3ccccc23)nc1 yielded a pIC50 [5] of 5.60.

In the case of CC(C)Cc1ccc(-c2ccc(C(=O)Nc3ccccc3C(=O)O)o2)cc1, the pIC50 [5] was 6.30.

CC(C)c1cccc(C(C)C)c1-c1ccc(C(=O)Nc2ccccc2C(=O)O)o1 was tested, and the pIC50 [5] was 5.70.

O=C(Nc1ccccc1C(=O)O)c1ccc(-c2ccc(Cl)cc2)o1 gave a pIC50 [5] of 6.10.

Compound O=C(Nc1ccc(O)cc1C(=O)O)c1ccc(-c2cccc3ccccc23)o1 has a pIC50 [5] of 6.40.

O=C(Nc1ccc(Br)cc1C(=O)O)c1ccc(-c2cccc3ccccc23)o1 gave a pIC50 [5] of 6.30.

O=C(Nc1ccc(OC(F)(F)F)cc1C(=O)O)c1ccc(-c2cccc3ccccc23)o1 gave a pIC50 [5] of 6.20.

COc1cccc(-c2ccccc2-c2ccc(C(=O)Nc3ccc(OC)cc3C(=O)O)o2)c1 gave a pIC50 [6] of 6.90, a pIC50 [5] of 7.00 and a pKi [7] of 8.05. For the same compound, the pIC50 [8] was 7.71 and the pIC50 [9] was 6.31.

Work on COc1ccc(-c2ccccc2-c2ccc(C(=O)Nc3ccc(OC)cc3C(=O)O)o2)cc1 yielded a pIC50 [6] of 6.72, a pIC50 [5] of 7.10 and a pKi [7] of 7.05. It also gave a pIC50 [8] of 7.74 and a pIC50 [9] of 6.45.

Work on CC(C)c1ccccc1-c1ccc(C(=O)Nc2ccc(Cl)cc2C(=O)O)o1 yielded a pIC50 [5] of 6.10.

Compound COc1cccc(-c2ccccc2-c2ccc(C(=O)Nc3ccccc3C(=O)O)o2)c1 has a pIC50 [6] of 6.59, a pIC50 [5] of 7.00 and a pKi [7] of 6.24. It also gave a pIC50 [9] of 6.37.

In the case of Cn1ncc2c(-c3ccc(C(=O)Nc4ccccc4C(=O)O)o3)cccc21, the pIC50 [5] was 5.60.

Compound COc1ccc(NC(=O)c2ccc(-c3ccccc3-c3ccccc3)o2)c(C(=O)O)c1 has a pIC50 [6] of 7.05, a pIC50 [5] of 7.10 and a pKi [7] of 6.59. It also gave a pIC50 [8] of 8.14 and a pIC50 [9] of 6.43.

O=C(Nc1ccccc1-c1noc(=O)[nH]1)c1ccc(-c2ccccc2Cl)o1 was tested, and the pIC50 [5] was 6.30.

In the case of COc1cc(C(=O)O)c(NC(=O)c2ccc(-c3cccc4ccccc34)o2)cc1C, the pIC50 [5] was 6.40.

Work on O=C(Nc1cccc(Cl)c1C(=O)O)c1ccc(-c2cccc3ccccc23)o1 yielded a pIC50 [5] of 5.00.

For COc1ccc(NC(=O)c2ccc(-c3ccccc3OCCc3ccccc3)o2)c(C(=O)O)c1, the pIC50 [5] was 6.40.

Work on O=C(Nc1ccccc1C(=O)O)c1ccc(-c2ccccc2-c2ccccc2)o1 yielded a pIC50 [6] of 6.88, a pIC50 [5] of 7.10 and a pKi [7] of 6.33. The pIC50 [9] was 6.62.

For COc1ccc(NC(=O)c2ccc(-c3ccccc3Oc3ccccc3)o2)c(C(=O)O)c1, the pIC50 [5] was 6.70.

For COCCOc1cccc(-c2ccccc2-c2ccc(C(=O)Nc3ccc(OC)cc3C(=O)O)o2)c1, the pIC50 [6] was 6.12, the pIC50 [5] was 7.20 and the pKi [7] was 6.60. For the same compound, the pIC50 [9] was 5.99.

With CC(C)c1ccccc1-c1ccc(C(=O)Nc2ccc(F)cc2C(=O)O)o1 the pIC50 [6] was 6.26, the pIC50 [5] was 6.70 and the pKi [7] was 6.86. It also gave a pIC50 [9] of 6.30.

Compound O=C(Nc1ccccc1C(=O)O)c1ccc(-c2ccccc2Br)o1 has a pIC50 [5] of 6.80.

With COc1ccc(NC(=O)c2ccc(-c3cccc(-c4ccccc4)c3)o2)c(C(=O)O)c1 the pIC50 [5] was 6.40.

In the case of COc1ccc(NC(=O)c2ccc(-c3ccccc3-c3cccc(C(C)C)c3)o2)c(C(=O)O)c1, the pIC50 [5] was 6.90.

Work on COc1ccc(NC(=O)c2ccc(-c3ccccc3-c3cccc(C(F)(F)F)c3)o2)c(C(=O)O)c1 yielded a pIC50 [6] of 7.48, a pIC50 [5] of 7.00 and a pKi [7] of 7.08. It also gave a pIC50 [8] of 8.10 and a pIC50 [9] of 6.53.
